Assay results: patent publication US20230095495A1, “SKIN CONDITIONING COMPOSITION WITH HIGH CONCENTRATION OF UREA TO BOOST THE SKINCARE ACTIVES” (L'OREAL, priority 2021, published 2023)

Assays:
[1] = tested on: stratum corneum; test: In vitro stratum corneum comparison of ΔT by differential scanning calorimetry (DSC); conditions: variation of INV #1 applied first without rinsing, then hydroxy-acid based peel moisturizer; compared to peel moisturizer alone
Experimental: In studies, the effect of urea at various concentrations and using hydroxyethyl urea (HEU) was according to INV #1 (40% urea, 5% glycine, 0.7% triacetin, buffer) in which the amount and form of urea was varied. […] Studies were conducted with each of the tested compositions to evaluate effect of the compositions on the stratum corneum.
In Vitro Stratum Corneum Comparison of Δ T using differential scanning calorimetry (DSC) is used to characterize the stability of a protein or other biomolecule directly in its native form. It does this by measuring the heat change associated with the molecule's thermal denaturation when heated at a constant rate. Compositions were evaluated on SC samples according to the following procedure. Stratum corneum samples were equilibrated at 75% relative humidity (RH) overnight. Inventive and Comparative Compositions and control treatments applied on SC surface (0.1 g/sample) for 15 min in 75% RH. The SC surface was wiped clean and rinsed with DI water. Allow to dry in 75% RH overnight. The DSC profile was measured from 20° C. to 120° C. at 5° C./min.
As an initial step, each test composition was applied first to skin without rinsing, followed by application of a hydroxy-acid based peel composition in a moisturizer form.

[2] = acute oral toxicity, mutagenicity, skin irritation, skin sensitization, phototoxicity; cited from earlier work

Structure (SMILES) | desquamation evidenced by stratum corneum disorganization, with increased amounts [1] | adverse effects in basic toxicological tests [2]
NC(=O)NCCO [hydroxyethyl urea] | increased desquamation | 
NC(N)=O [urea] | increased desquamation | 
CC(c1ccccc1)c1ccc(O)cc1O (stereo not drawn) [Phenylethyl resorcinol, phenylethyl resorcinol] |  | has not shown adverse effects
